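GI50 = concentration required for 50% inhibition of growth. The concentration for full growth arrest is given as TGI.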
Assays:
Test in all cases: inhibition of tumour cell growth, NCI panel, 384-well format
MALME-3M melanoma = system: MALME-3M melanoma
HS 578T breast = system: HS 578T breast
NCI/ADR-RES ovarian = system: NCI/ADR-RES ovarian
BT-549 breast = system: BT-549 breast
MDA-MB-435 melanoma = system: MDA-MB-435 melanoma
HL-60(TB) leukemia = system: HL-60(TB) leukemia
SNB-75 CNS = system: SNB-75 CNS
DU-145 prostate = system: DU-145 prostate
CAKI-1 renal = system: CAKI-1 renal
OVCAR-3 ovarian = system: OVCAR-3 ovarian
HCT-15 colon = system: HCT-15 colon
SF-268 CNS = system: SF-268 CNS
TK-10 renal = system: TK-10 renal
A498 renal = system: A498 renal
SK-MEL-28 melanoma = system: SK-MEL-28 melanoma
LOX IMVI melanoma = system: LOX IMVI melanoma
SR leukemia = system: SR leukemia
OVCAR-8 ovarian = system: OVCAR-8 ovarian
U251 glioblastoma = system: U251 glioblastoma
EKVX NSCLC = system: EKVX NSCLC
COLO 205 colon = system: COLO 205 colon
MCF7 breast = system: MCF7 breast
RXF 393 renal = system: RXF 393 renal
SK-MEL-5 melanoma = system: SK-MEL-5 melanoma
SN12C renal = system: SN12C renal
NCI-H322M lung = system: NCI-H322M lung
HOP-62 NSCLC = system: HOP-62 NSCLC
NCI-H226 lung = system: NCI-H226 lung
RPMI-8226 leukemia = system: RPMI-8226 leukemia
HCC-2998 colon = system: HCC-2998 colon
K-562 leukemia = system: K-562 leukemia
UACC-257 melanoma = system: UACC-257 melanoma
OVCAR-5 ovarian = system: OVCAR-5 ovarian
HT29 colon = system: HT29 colon
MDA-MB-231 breast = system: MDA-MB-231 breast
MDA-MB-468 breast = system: MDA-MB-468 breast
SW-620 colon = system: SW-620 colon
UACC-62 melanoma = system: UACC-62 melanoma
ACHN renal = system: ACHN renal
NCI-H522 lung = system: NCI-H522 lung
M14 melanoma = system: M14 melanoma
T-47D breast = system: T-47D breast
MOLT-4 leukemia = system: MOLT-4 leukemia
PC-3 prostate = system: PC-3 prostate
KM12 colon = system: KM12 colon
NCI-H23 lung = system: NCI-H23 lung
HOP-92 NSCLC = system: HOP-92 NSCLC
SNB-19 CNS = system: SNB-19 CNS
IGROV1 ovarian = system: IGROV1 ovarian
SF-539 CNS = system: SF-539 CNS
A549 NSCLC = system: A549 NSCLC
OVCAR-4 ovarian = system: OVCAR-4 ovarian
UO-31 renal = system: UO-31 renal
786-0 renal = system: 786-0 renal
NCI-H460 NSCLC = system: NCI-H460 NSCLC
CCRF-CEM leukemia = system: CCRF-CEM leukemia
SF-295 CNS = system: SF-295 CNS
SK-OV-3 ovarian = system: SK-OV-3 ovarian

## COCCn1c2c([n+](Cc3cnccn3)c1C)C(=O)c1ccccc1C2=O
MALME-3M melanoma
  GI50: 0.0161 µM
  TGI: 0.0379 µM
HS 578T breast
  GI50: 0.0198 µM
  TGI: 0.125 µM
NCI/ADR-RES ovarian
  GI50: 18.8 µM
  TGI: > 100 µM
BT-549 breast
  GI50: < 0.01 µM
  TGI: < 0.01 µM
MDA-MB-435 melanoma
  GI50: < 0.01 µM
  TGI: < 0.01 µM
HL-60(TB) leukemia
  GI50: < 0.01 µM
  TGI: < 0.01 µM
SNB-75 CNS
  GI50: < 0.01 µM
  TGI: < 0.01 µM
DU-145 prostate
  GI50: < 0.01 µM
  TGI: < 0.01 µM
CAKI-1 renal
  GI50: < 0.01 µM
  TGI: < 0.01 µM
OVCAR-3 ovarian
  GI50: < 0.01 µM
  TGI: < 0.01 µM
HCT-15 colon
  GI50: 0.0403 µM
  TGI: 0.735 µM
SF-268 CNS
  GI50: < 0.01 µM
  TGI: < 0.01 µM
TK-10 renal
  GI50: < 0.01 µM
  TGI: 0.024 µM
A498 renal
  GI50: 0.159 µM
  TGI: 1.23 µM
SK-MEL-28 melanoma
  GI50: < 0.01 µM
  TGI: < 0.01 µM
LOX IMVI melanoma
  GI50: < 0.01 µM
  TGI: < 0.01 µM
SR leukemia
  GI50: < 0.01 µM
  TGI: < 0.01 µM
OVCAR-8 ovarian
  GI50: < 0.01 µM
  TGI: < 0.01 µM
U251 glioblastoma
  GI50: < 0.01 µM
  TGI: < 0.01 µM
EKVX NSCLC
  GI50: < 0.01 µM
  TGI: < 0.01 µM
COLO 205 colon
  GI50: < 0.01 µM
  TGI: 0.011 µM
MCF7 breast
  GI50: < 0.01 µM
  TGI: < 0.01 µM
RXF 393 renal
  GI50: < 0.01 µM
  TGI: 0.0121 µM
SK-MEL-5 melanoma
  GI50: < 0.01 µM
  TGI: < 0.01 µM
SN12C renal
  GI50: < 0.01 µM
  TGI: < 0.01 µM
NCI-H322M lung
  GI50: < 0.01 µM
  TGI: 0.0259 µM
HOP-62 NSCLC
  GI50: < 0.01 µM
  TGI: 0.0152 µM
NCI-H226 lung
  GI50: 0.0114 µM
  TGI: 0.0404 µM
RPMI-8226 leukemia
  GI50: < 0.01 µM
  TGI: < 0.01 µM
HCC-2998 colon
  GI50: < 0.01 µM
  TGI: 0.0143 µM
K-562 leukemia
  GI50: < 0.01 µM
  TGI: < 0.01 µM
UACC-257 melanoma
  GI50: < 0.01 µM
  TGI: < 0.01 µM
OVCAR-5 ovarian
  GI50: < 0.01 µM
  TGI: 0.0165 µM
HT29 colon
  GI50: 0.018 µM
  TGI: 0.0554 µM
MDA-MB-231 breast
  GI50: < 0.01 µM
  TGI: < 0.01 µM
MDA-MB-468 breast
  GI50: < 0.01 µM
  TGI: < 0.01 µM
SW-620 colon
  GI50: < 0.01 µM
  TGI: 0.0103 µM
UACC-62 melanoma
  GI50: < 0.01 µM
  TGI: < 0.01 µM
ACHN renal
  GI50: 0.0176 µM
  TGI: 0.0457 µM
NCI-H522 lung
  GI50: < 0.01 µM
  TGI: < 0.01 µM
M14 melanoma
  GI50: < 0.01 µM
  TGI: 0.012 µM
T-47D breast
  GI50: < 0.01 µM
  TGI: < 0.01 µM
MOLT-4 leukemia
  GI50: < 0.01 µM
  TGI: < 0.01 µM
PC-3 prostate
  GI50: < 0.01 µM
  TGI: < 0.01 µM
KM12 colon
  GI50: 0.026 µM
  TGI: 0.114 µM
NCI-H23 lung
  GI50: < 0.01 µM
  TGI: < 0.01 µM
HOP-92 NSCLC
  GI50: < 0.01 µM
  TGI: < 0.01 µM
SNB-19 CNS
  GI50: < 0.01 µM
  TGI: < 0.01 µM
IGROV1 ovarian
  GI50: < 0.01 µM
  TGI: < 0.01 µM
SF-539 CNS
  GI50: < 0.01 µM
  TGI: < 0.01 µM
A549 NSCLC
  GI50: < 0.01 µM
  TGI: 0.0129 µM
OVCAR-4 ovarian
  GI50: < 0.01 µM
  TGI: < 0.01 µM
UO-31 renal
  GI50: 0.377 µM
  TGI: 7.73 µM
786-0 renal
  GI50: < 0.01 µM
  TGI: 0.013 µM
NCI-H460 NSCLC
  GI50: < 0.01 µM
  TGI: 0.0122 µM
CCRF-CEM leukemia
  GI50: < 0.01 µM
  TGI: 0.0165 µM
SF-295 CNS
  GI50: 0.0104 µM
  TGI: 0.0225 µM
SK-OV-3 ovarian
  GI50: < 0.01 µM
  TGI: < 0.01 µM

Source: PubChem BioAssay (NCI)
